The experiment has as its system cultured murine melanocytes (melan-a). The experiment can be described thus: Melanin assay in cultured murine melanocytes (melan-a). In kind it is cell-based. The settings on record: for activity at 1 µM / activity at 5 µM: Mus musculus; for activity at 1 µM: read-out: % of control melanin remaining after treatment @ 1 μM; for activity at 5 µM: read-out: % of control melanin remaining after treatment @ 5 μM; for ability to block melanin accumulation: cells treated with 1 and 5 uM test compound versus carrier (DMSO) only. How it is done: The Spectrum Collection library consisting of 2000 drug compounds or natural products represents a source for the identification of compounds useful in the present invention. The library may be screened to identify novel pigmentation inhibitors in cultured murine melanocytes (melan-a). Compounds are dissolved in dimethylsulfoxide (DMSO) to a final concentration of 10 mM. Screening is performed with cultured melanocytes in 24-well plates followed by melanin assay (see below). A minimum change of 50% in melanin formation is established as significant for a pigmentation inhibitor. DMSO may be used as a negative control and the widely used depigmenting agent, hydroquinone, may be used as a positive control on every plate. Primary screening is performed at a final concentration of 1 μM and potential candidates from the primary screening are reconfirmed in duplicate at final concentrations of 1 and 5 μM.
Melan-a cells are plated at 5×10^4 cells per well in 1 ml of culture media in 24-well plates the day before adding the library compounds. All compounds are added at the indicated final concentrations. Cells are harvested after 72 hours of incubation, and the melanin assay is performed.
For the primary and secondary screening, cells were harvested and dissolved in 200 μl of 2N NaOH in 20% DMSO at 70° C. A 180-μl aliquot of the resulting solution was measured for absorbance at 490 nm.
A series of structurally related compounds was then tested in this screen, to identify compounds that inhibit skin darkening.

[1] abbreviates: 1 μM test compound, melan-a cells, 72 hours incubation, control = DMSO carrier, absorbance at 490 nm.
The mark [2] stands for this setting: 5 μM test compound, melan-a cells, 72 hours incubation, control = DMSO carrier, absorbance at 490 nm.

Where two headings read alike, the source gives them in different places.

`CC(C)=CCOc1cc2oc(=O)ccc2cc1O` [Compound 1, PRENYLETIN]: the activity at 1 µM under setting [1] turned out to be 79%. Further, the activity at 5 µM under setting [2] came out at 80%.

Take `C=C(C)[C@H]1COc2cc3oc(=O)ccc3cc2O1` [Compound 2, OBLIQUIN]: the activity at 1 µM under setting [1] was found to be 84%. Further, the activity at 5 µM under setting [2] was determined as 95%.

As for `CC(C)C1COc2cc3oc(=O)ccc3cc2O1` (stereo not shown) [Compound 3, DIHYDRO-OBLIQUIN], under setting [1], the activity at 1 µM was 81%. Besides, under setting [2], the activity at 5 µM was determined as 81%.

For the compound `COc1cc2ccc(=O)oc2c(OC)c1OC` [Compound 4, FRAXIDIN METHYL ETHER], the activity at 1 µM under setting [1] turned out to be 87%. Besides, under setting [2], the activity at 5 µM came out at 95%.

Turning to `CC1(C)C=Cc2cc3ccc(=O)oc3cc2O1` [Compound 5, XANTHYLETIN], the activity at 1 µM under setting [1] was 99%. Besides, the activity at 5 µM under setting [2] came to 110%.

On to `CC(C)=CCOc1c2occc2cc2ccc(=O)oc12` [Compound 6, IMPERATORIN], for which the activity at 1 µM under setting [1] amounted to 91%. For the same compound, the activity at 5 µM under setting [2] came to 96%.

For `COc1cc2c(cc1-c1cc3cc4ccoc4cc3oc1=O)OCO2` [Compound 7, PACHYRRHIZIN], the “ability to block melanin accumulation” value was “robust dose dependent ability to block melanin accumulation”. Besides, where the note is “Melan-a, 72 h”, the activity at 1 µM amounted to 75% and the activity at 5 µM was determined as 71%.

With `COc1ccc2ccc(=O)oc2c1` [Compound 8, HERNIARIN], the activity at 1 µM under setting [1] stood at 84%. Besides, the activity at 5 µM under setting [2] worked out at 81%.

In the case of `COc1ccc(-c2c(OC)c3c(OC)c4c(cc3oc2=O)OC(C)(C)C=C4)cc1` [Compound 9, ROBUSTIC ACID METHYL ETHER], the “ability to block melanin accumulation” value is listed as “robust dose dependent ability to block melanin accumulation”. The activity at 1 µM under setting [1] came to 69%. In addition, the activity at 5 µM under setting [2] was 16%.

As to `COc1ccc(-c2c(O)c3c(OC)c4c(cc3oc2=O)OC(C)(C)C=C4)cc1` [Compound 10, ROBUSTIC ACID], the activity at 1 µM under setting [1] was found to be 91%. The activity at 5 µM under setting [2] was determined as 93%.

In the case of `COc1c(O)cc2c(-c3ccccc3)cc(=O)oc2c1OC` [Compound 11, KUHLMANNIN], the activity at 1 µM under setting [1] turned out to be 81%. For the same compound, the activity at 5 µM under setting [2] was 84%.

As to `COc1cc2ccc(=O)oc2c2ccoc12` [Compound 12, SPHONDIN], under setting [1], the activity at 1 µM turned out to be 89%. For the same compound, under setting [2], the activity at 5 µM was 101%.

For the compound `COc1c2ccoc2c(OC)c2oc(=O)ccc12` [Compound 13, ISOPIMPINELLIN], the activity at 1 µM under setting [1] was found to be 86%. Moreover, the activity at 5 µM under setting [2] came out at 95%.

As to `COc1c(OC)c2occc2c2oc(=O)ccc12` [Compound 14, PIMPINELLIN], the activity at 1 µM under setting [1] came out at 76%. The activity at 5 µM under setting [2] came out at 109%.

With `COc1cc2occc2c2oc(=O)ccc12` [Compound 15, ISOBERGAPTENE], under setting [1], the activity at 1 µM is 86%. Also, the activity at 5 µM under setting [2] was found to be 108%.

Consider `COc1c(CC=C(C)C)c2c(c3oc(=O)c(-c4ccc(O)cc4)c(O)c13)C=CC(C)(C)O2` [Compound 16, SCANDENIN], for which the “ability to block melanin accumulation” value is given as “robust dose dependent ability to block melanin accumulation”. The activity at 1 µM under setting [1] came to 90%. Further, the activity at 5 µM under setting [2] amounted to 64%.

In the case of `COc1ccc2c(C)cc(=O)oc2c1` [Compound 17, HYMECROMONE METHYL ETHER], the activity at 1 µM under setting [1] was found to be 96%. For the same compound, the activity at 5 µM under setting [2] was determined as 93%.

Take `COc1c2ccoc2cc2oc(=O)ccc12` [Compound 18, BERGAPTENE]: the activity at 1 µM under setting [1] was found to be 100%. The activity at 5 µM under setting [2] was 93%.

Take `CCOP(=S)(OCC)Oc1ccc2c(C)c(Cl)c(=O)oc2c1` [Compound 19, COUMOPHOS]: the “ability to block melanin accumulation” value is listed as “robust dose dependent ability to block melanin accumulation”. Also, under setting [1], the activity at 1 µM came to 81%. Moreover, under setting [2], the activity at 5 µM came to 48%.

For the compound `COc1c2occc2cc2ccc(=O)oc12` [Compound 20, METHOXSALEN, reference compound], under setting [1], the activity at 1 µM was 120%. For the same compound, the activity at 5 µM under setting [2] was determined as 125%.

On to `CO[C@@H]1[C@@H](OC(N)=O)[C@@H](O)[C@H](Oc2ccc3c(O)c(NC(=O)c4ccc(O)c(CC=C(C)C)c4)c(=O)oc3c2C)OC1(C)C` [Compound 21, NOVOBIOCIN SODIUM, reference compound], for which the activity at 1 µM under setting [1] is 90%. Also, the activity at 5 µM under setting [2] stood at 94%.

With `Cc1cc2cc3c(C)cc(=O)oc3c(C)c2o1` [Compound 22, TRIOXSALEN, reference compound], the activity at 1 µM under setting [1] was determined as 90%. For the same compound, the activity at 5 µM under setting [2] stood at 118%.

Turning to `COc1cc(OC)c2ccc(=O)oc2c1` [Compound 23, CITROPTEN], the activity at 1 µM under setting [1] was found to be 86%. Further, the activity at 5 µM under setting [2] was determined as 97%.

Turning to `Cc1cc(=O)oc2cc(O)c(O)cc12` [Compound 24, 4-METHYLESCULETIN], under setting [1], the activity at 1 µM was found to be 88%. The activity at 5 µM under setting [2] came out at 100%.

`O=c1ccc2cc(O)c(O)cc2o1` [Compound 25, ESCULETIN]: the activity at 1 µM under setting [1] amounted to 87%. Further, the activity at 5 µM under setting [2] was found to be 88%.

As for `O=c1ccc2cc(O[C@@H]3O[C@H](CO)[C@@H](O)[C@H](O)[C@H]3O)c(O)cc2o1` [Compound 26, AESCULIN], the activity at 1 µM under setting [1] came to 70%. Also, the activity at 5 µM under setting [2] stood at 84%.

On to `CC1(C)Oc2ccc3ccc(=O)oc3c2CC1O` (stereo not shown) [Compound 27, LOMATIN], for which, under setting [1], the activity at 1 µM turned out to be 89%. In addition, under setting [2], the activity at 5 µM came to 85%.

With `C/C=C(/C)C(=O)O[C@@H]1Cc2c(ccc3ccc(=O)oc23)OC1(C)C` [Compound 28, SELINIDIN], the activity at 1 µM under setting [1] worked out at 85%. For the same compound, under setting [2], the activity at 5 µM turned out to be 82%.

Regarding `C/C=C(\C)C(=O)O[C@@H]1c2c(ccc3ccc(=O)oc23)OC(C)(C)[C@@H]1OC(C)=O` [Compound 29, PTERYXIN], the activity at 1 µM under setting [1] turned out to be 93%. The activity at 5 µM under setting [2] worked out at 101%.

With `CC(=O)O[C@@H]1c2c(ccc3ccc(=O)oc23)OC(C)(C)[C@@H]1OC(=O)CC(C)C` [Compound 30, DIHYDROSAMIDIN], under setting [1], the activity at 1 µM amounted to 106%. The activity at 5 µM under setting [2] amounted to 88%.

In the case of `CC(C)(O)[C@@H]1Cc2cc3ccc(=O)oc3cc2O1` [Compound 31, MARMESIN], under setting [1], the activity at 1 µM came to 89%. For the same compound, the activity at 5 µM under setting [2] was determined as 97%.

Turning to `CC(=O)OC(C)(C)[C@@H]1Cc2cc3ccc(=O)oc3cc2O1` [Compound 32, MARMESIN ACETATE], the activity at 1 µM under setting [1] came out at 77%. In addition, the activity at 5 µM under setting [2] worked out at 92%.

Consider `COc1c(C(C)C)oc2cc3oc(=O)ccc3cc12` [Compound 34, PEUCEDANIN], for which the activity at 1 µM under setting [1] was 83%. Besides, the activity at 5 µM under setting [2] is 84%.

As to `COc1c2c(c(CC=C(C)C)c3oc(=O)c(-c4ccc(O)cc4)c(O)c13)OC(C)(C)C=C2` [Compound 35, LO[…]], the activity at 1 µM under setting [1] is 84%. Under setting [2], the activity at 5 µM was determined as 81%.

As to `Cc1cc(=O)oc2c(O)c(O)ccc12` [Compound 37, 4- METHYLDAPHNETIN], the activity at 1 µM under setting [1] was 83%. Further, under setting [2], the activity at 5 µM came out at 88%.

As to `COc1cc2ccc(=O)oc2cc1O` [Compound 38, SCOPOLETIN], the activity at 1 µM under setting [1] worked out at 77%. Further, the activity at 5 µM under setting [2] turned out to be 83%.

For `COc1cc2ccc(=O)oc2c(O)c1O` [Compound 39, FRAXETIN], under setting [1], the activity at 1 µM came to 84%. Also, the activity at 5 µM under setting [2] is 89%.

DERRUSNIN [Compound 36]: under setting [1], the “% of control melanin remaining after treatment @ 1 μM” value was 81 % of control. Besides, under setting [2], the “% of control melanin remaining after treatment @ 5 μM” value is recorded as 87 % of control.

Turning to FELAMIDIN [Compound 40], the “% of control melanin remaining after treatment @ 1 μM” value under setting [1] is 97 % of control. Besides, under setting [2], the “% of control melanin remaining after treatment @ 5 μM” value is reported as 88 % of control.

For the origin of these results see patent publication US8563754B2, “Compounds, compositions and methods for preventing skin darkening” (priority 2010, dated 2013).
